In assay [1] the test system is primary human T-cells.
Assay [2] concerns primary human T-cells. In words: Proliferation assay after 5 days (CellTiter-Glo, CD3 stimulation; PBS counter screen). It is filed as cell-based. The following applies: for Emax: read-out: Emax proliferation (% activation); for EC50: read-out: Tcell Proliferation CD3 EC50. The method, boiled down:
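Compounds were added to medium-only plates, and proliferation was read 5 days later as luminescence from CellTiter-Glo 2.0, whose ATP signal is proportional to cell number. Plates and reagent were equilibrated to room temperature for 45 min before an equal volume of reagent was added, with 15 min rocking.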

[3] abbreviates: Homo sapiens, T-cell, 120 h, CD3 stimulation, 5 days, normalized to reference compound A1 as stimulator control = 100%, DMSO neutral control.
Setting [4] is: Homo sapiens, T-cell, 120 h, primary human T-cells, CD3 stimulation, CellTiter-Glo after 5 days, EC50 of fitted sigmoidal curve.

Like-named read-outs stand apart in the source and are kept apart here.

On to `CN1CC(c2nnc(-c3ccc4c(c3)N(Cc3ccc(OC(F)(F)F)cc3)C(=O)[C@@H](N)CS4(=O)=O)o2)CC(F)(F)C1` (stereo partly drawn) [Example 421, (3R)-3-amino-7-[5-(5,5-difluoro-1-methyl-3-piperidyl)-1,3,4-oxadiazol-2-yl]-1,1-dioxo-5-[[4-(trifluoromethoxy)phenyl]methyl]-2,3-dihydro-1λ^6,5-benzothiazepin-4-one], for which the EC50 came out at 3240 nM in the assay with primary human T-cells [1] and 2480 nM with primary human T-cells [2] (setting [4]). The Emax in the assay on primary human T-cells [2] (setting [3]) worked out at 123%.
In the case of `CN1CC(c2nc(-c3cc4c(cc3F)S(=O)(=O)C[C@H](N)C(=O)N4Cc3ccc(Cl)cc3)no2)CC(C)(C)C1` (stereo partly drawn) [Example 324, (3R)-3-amino-5-[(4-chlorophenyl)methyl]-8-fluoro-1,1-dioxo-7-[5-(1,5,5-trimethyl-3-piperidyl)-1,2,4-oxadiazol-3-yl]-2,3-dihydro-1λ^6,5-benzothiazepin-4-one], the values for the EC50 in the assay with primary human T-cells [1] and in the assay on primary human T-cells [2] (setting [4]) were 4370 nM and 341 nM, respectively. The Emax in the assay with primary human T-cells [2] (setting [3]) was 107%.
Regarding `COC(=O)N1CC(c2nnc(-c3cc4c(cc3F)S(=O)(=O)C[C@H](N)C(=O)N4Cc3ccc(Cl)cc3)o2)C2(CC2)C1` (stereo partly drawn) [Example 177, methyl 7-[5-[(3R)-3-amino-5-[(4-chlorophenyl)methyl]-8-fluoro-1,1,4-trioxo-2,3-dihydro-1λ^6,5-benzothiazepin-7-yl]-1,3,4-oxadiazol-2-yl]-5-azaspiro[2.4]heptane-5-carboxylate], the values for the EC50 with primary human T-cells [1] and with primary human T-cells [2] (setting [4]) were 1440 nM and 788 nM, respectively. Besides, the Emax in the assay on primary human T-cells [2] (setting [3]) was determined as 68%.
As for `CC(C)(C)c1nnc(-c2ccc3c(c2)N(Cc2ccc(N4CCCC4)cc2)C(=O)[C@@H](N)CS3(=O)=O)o1` [Example 448, (3R)-3-amino-7-(5-tert-butyl-1,3,4-oxadiazol-2-yl)-1,1-dioxo-5-[(4-pyrrolidin-1-ylphenyl)methyl]-2,3-dihydro-1λ^6.5-benzothiazepin-4-one], the EC50 in the assay with primary human T-cells [1] was found to be 4620 nM; in the assay with primary human T-cells [2] (setting [4]) it was 1960 nM. Also, the Emax with primary human T-cells [2] (setting [3]) is 94%.
For `CC(C)(CN1CCC(F)(F)CC1)c1nnc(-c2cc3c(cc2F)S(=O)(=O)C[C@H](N)C(=O)N3Cc2ccc(Cl)cc2)o1` [Example 142, (3R)-3-amino-5-[(4-chlorophenyl)methyl]-7-[5-[2-(4,4-difluoro-1-piperidyl)-1,1-dimethyl-ethyl]-1,3,4-oxadiazol-2-yl]-8-fluoro-1,1-dioxo-2,3-dihydro-1λ^6,5-benzothiazepin-4-one], in that order: 224 nM, 138 nM and 66%.
In turn, `Cc1ccc(OC(=O)N2CCC(C)(c3nnc(-c4ccc5c(c4)N(Cc4ccc(Cl)cc4)C(=O)[C@@H](N)CS5(=O)=O)o3)CC2)cn1` [Example 383, (6-methyl-3-pyridyl) 4-[5-[(3R)-3-amino-5-[(4-chlorophenyl)methyl]-1,1,4-trioxo-2,3-dihydro-1λ^6,5-benzothiazepin-7-yl]-1,3,4-oxadiazol-2-yl]-4-methyl-piperidine-1-carboxylate] gave an EC50 in the assay with primary human T-cells [1] of 857 nM. In addition, in the assay on primary human T-cells [2] (Homo sapiens, T-cell, 120 h), the Emax is 94% and the EC50 was determined as 1320 nM.
Turning to `COC1(c2nnc(-c3ccc4c(c3)N(Cc3ccc(Cl)cc3)C(=O)[C@@H](N)CS4(=O)=O)o2)CCOCC1` [Example 371, (3R)-3-amino-5-[(4-chlorophenyl)methyl]-7-[5-(4-methoxytetrahydropyran-4-yl)-1,3,4-oxadiazol-2-yl]-1,1-dioxo-2,3-dihydro-1λ^6,5-benzothiazepin-4-one], the EC50 in the assay with primary human T-cells [1] was greater than 10000 nM; with primary human T-cells [2] (setting [4]), 2760 nM. In the assay with primary human T-cells [2] (setting [3]), the Emax amounted to 84%.
With `CC(C)(C)c1nnc(-c2ccc3c(c2)N(Cc2ccc(OCC(F)(F)F)cc2)C(=O)[C@@H](N)CS3(=O)=O)o1` [Example 429, (3R)-3-amino-7-(5-tert-butyl-1,3,4-oxadiazol-2-yl)-1,1-dioxo-5-[[4-(2,2,2-trifluoroethoxy)phenyl]methyl]-2,3-dihydro-1λ^6,5-benzothiazepin-4-one], the EC50 in the assay on primary human T-cells [1] turned out to be 960 nM; in the assay on primary human T-cells [2] (setting [4]), 4850 nM. The Emax with primary human T-cells [2] (setting [3]) came to 103%.
On to `COC(=O)N1CC2CC(c3nc(-c4cc5c(cc4F)S(=O)(=O)C[C@H](N)C(=O)N5Cc4ccc(OC(F)(F)F)cc4)no3)(C2)C1` [Example 335, methyl 1-[3-[(3R)-3-amino-8-fluoro-1,1,4-trioxo-5-[[4-(trifluoromethoxy)phenyl]methyl]-2,3-dihydro-1λ^6,5-benzothiazepin-7-yl]-1,2,4-oxadiazol-5-yl]-3-azabicyclo[3.1.1]heptane-3-carboxylate], for which the EC50 with primary human T-cells [1] is 819 nM. The Emax in the assay on primary human T-cells [2] (setting [3]) was found to be 161%.
For the compound `CC(O)(CNC(=O)c1nc(-c2cc3c(cc2F)S(=O)(=O)C[C@H](N)C(=O)N3Cc2ccc(Cl)cc2)no1)C(F)(F)F` (stereo partly drawn) [Example 301, 3-[(3R)-3-amino-5-[(4-chlorophenyl)methyl]-8-fluoro-1,1,4-trioxo-2,3-dihydro-1λ^6,5-benzothiazepin-7-yl]-N-(3,3,3-trifluoro-2-hydroxy-2-methyl-propyl)-1,2,4-oxadiazole-5-carboxamide], the EC50 in the assay on primary human T-cells [1] amounted to 6140 nM; in the assay with primary human T-cells [2] (setting [4]), 2440 nM. In addition, in the assay with primary human T-cells [2] (setting [3]), the Emax stood at 93%.
As for `N[C@H]1CS(=O)(=O)c2cc(F)c(-c3nnc(N4CCC(F)(F)CC4)o3)cc2N(Cc2ccc(Cl)cc2)C1=O` [Example 480, (3R)-3-amino-5-[(4-chlorophenyl)methyl]-7-[5-(4,4-difluoro-1-piperidyl)-1,3,4-oxadiazol-2-yl]-8-fluoro-1,1-dioxo-2,3-dihydro-1λ^6,5-benzothiazepin-4-one], the values for the EC50 with primary human T-cells [1] and with primary human T-cells [2] (setting [4]) were less than 15.1 nM and 162 nM, respectively. Also, the Emax with primary human T-cells [2] (setting [3]) amounted to 152%.
`CN(C)c1nnc(-c2cc3c(cc2F)S(=O)(=O)C[C@H](N)C(=O)N3Cc2ccc(Cl)cc2)o1` [Example 465, (3R)-3-amino-5-[(4-chlorophenyl)methyl]-7-[5-(dimethylamino)-1,3,4-oxadiazol-2-yl]-8-fluoro-1,1-dioxo-2,3-dihydro-1λ^6,5-benzothiazepin-4-one]: the values for the EC50 in the assay on primary human T-cells [1] and in the assay with primary human T-cells [2] (setting [4]) were 1170 nM and 171 nM, respectively. For the same compound, the Emax with primary human T-cells [2] (setting [3]) is 100%.
Consider `COC(=O)N1CCC(c2nnc(-c3ccc4c(c3)N(Cc3ccc(OC(F)(F)F)cc3)C(=O)[C@@H](N)CS4(=O)=O)o2)C1` (stereo partly drawn) [Example 423, methyl 3-[5-[(3R)-3-amino-1,1,4-trioxo-5-[[4-(trifluoromethoxy)phenyl]methyl]-2,3-dihydro-1λ^6,5-benzothiazepin-7-yl]-1,3,4-oxadiazol-2-yl]pyrrolidine-1-carboxylate], for which the values for the EC50 with primary human T-cells [1] and with primary human T-cells [2] (setting [4]) were 1500 nM and 1720 nM, respectively. Also, the Emax with primary human T-cells [2] (setting [3]) was 78%.
For `CN1CCC(c2nnc(-c3cc4c(cc3F)S(=O)(=O)C[C@H](N)C(=O)N4Cc3ccc(Cl)cc3)o2)C1` (stereo partly drawn) [Example 144, (3R)-3-amino-5-[(4-chlorophenyl)methyl]-8-fluoro-7-[5-(1-methylpyrrolidin-3-yl)-1,3,4-oxadiazol-2-yl]-1,1-dioxo-2,3-dihydro-1λ^6,5-benzothiazepin-4-one], the EC50 in the assay on primary human T-cells [1] stood at 1820 nM; with primary human T-cells [2] (setting [4]) it was 6150 nM. Also, in the assay with primary human T-cells [2] (setting [3]), the Emax is 106%.
Take `CC(C)(C)c1nnc(-c2cc3c(cc2F)[S+]([O-])C[C@H](N)C(=O)N3Cc2ccc(OC(F)(F)F)cc2)o1` (some centres unmarked) [Example 453]: the EC50 in the assay with primary human T-cells [1] stood at 178 nM; with primary human T-cells [2] (primary human T-cells, CD3 stimulation, CellTiter-Glo after 5 days, EC50 of fitted sigmoidal curve), 444 nM. The “Emax proliferation (% activation)” value in the assay with primary human T-cells [2] (CD3 stimulation, 5 days, normalized to reference compound A1 as stimulator control = 100%, DMSO neutral control) is reported as 136 % activation.
As for `N[C@H]1CS(=O)(=O)c2cc(F)c(-c3nnc(-c4ccc(F)nc4)o3)cc2N(Cc2ccc(Cl)cc2)C1=O` [Example 134, (3R)-3-amino-5-[(4-chlorophenyl)methyl]-8-fluoro-7-[5-(6-fluoro-3-pyridyl)-1,3,4-oxadiazol-2-yl]-1,1-dioxo-2,3-dihydro-1λ^6,5-benzothiazepin-4-one], the EC50 with primary human T-cells [1] was 1360 nM; in the assay on primary human T-cells [2] (setting [4]), greater than 10000 nM. For the same compound, the Emax with primary human T-cells [2] (setting [3]) was found to be 34%.
Take `CC(C)Nc1nnc(-c2ccc3c(c2)N(Cc2ccc(Cl)cc2)C(=O)[C@@H](N)CS3(=O)=O)o1` [Example 399, (3R)-3-amino-5-[(4-chlorophenyl)methyl]-7-[5-(isopropylamino)-1,3,4-oxadiazol-2-yl]-1,1-dioxo-2,3-dihydro-1λ^6,5-benzothiazepin-4-one]: the EC50 in the assay with primary human T-cells [1] amounted to 3580 nM; with primary human T-cells [2] (setting [4]), 3460 nM. Further, in the assay on primary human T-cells [2] (setting [3]), the Emax stood at 73%.
In the case of `CN(C)C(=O)C(C)(C)c1nnc(-c2cc3c(cc2F)S(=O)(=O)C[C@H](N)C(=O)N3Cc2ccc(Cl)cc2)o1` [Example 125, N,N,2-trimethyl-2-[5-[(3R)-3-amino-5-[(4-chlorophenyl)methyl]-8-fluoro-1,1,4-trioxo-2,3-dihydro-1λ^6,5-benzothiazepin-7-yl]-1,3,4-oxadiazol-2-yl]propanamide], the EC50 with primary human T-cells [1] turned out to be 1440 nM; in the assay with primary human T-cells [2] (setting [4]), 587 nM. The Emax in the assay with primary human T-cells [2] (setting [3]) turned out to be 112%.
As for `COC(=O)N1CC(n2nnc(-c3cc4c(cc3F)S(=O)(=O)C[C@H](N)C(=O)N4Cc3ccc(Cl)cc3)n2)CC(F)(F)C1` (stereo partly drawn) [Example 25, methyl 3,3-difluoro-5-[5-[(3R)-3-amino-5-[(4-chlorophenyl)methyl]-8-fluoro-1,1,4-trioxo-2,3-dihydro-1λ^6,5-benzothiazepin-7-yl]tetrazol-2-yl]piperidine-1-carboxylate], the EC50 in the assay with primary human T-cells [1] was found to be 1320 nM; in the assay with primary human T-cells [2] (setting [4]), 249 nM. In addition, the Emax in the assay with primary human T-cells [2] (setting [3]) is 132%.

The values are drawn from patent US20240368150A1 (Hoffmann-La Roche Inc., priority 2021, published 2024).
